Experimental findings from US7229997B2, “Compounds and their use” (Biovitrum AB, priority 2002, dated 2007) are described below.

Read-outs that look alike come from different tables or passages of the source.

The test concerns the target T1, human 5-HT2c receptor (Homo sapiens, UniProt P28335).
T1 construct: expressed in transfected cells
T1 sequence (P28335 33-458): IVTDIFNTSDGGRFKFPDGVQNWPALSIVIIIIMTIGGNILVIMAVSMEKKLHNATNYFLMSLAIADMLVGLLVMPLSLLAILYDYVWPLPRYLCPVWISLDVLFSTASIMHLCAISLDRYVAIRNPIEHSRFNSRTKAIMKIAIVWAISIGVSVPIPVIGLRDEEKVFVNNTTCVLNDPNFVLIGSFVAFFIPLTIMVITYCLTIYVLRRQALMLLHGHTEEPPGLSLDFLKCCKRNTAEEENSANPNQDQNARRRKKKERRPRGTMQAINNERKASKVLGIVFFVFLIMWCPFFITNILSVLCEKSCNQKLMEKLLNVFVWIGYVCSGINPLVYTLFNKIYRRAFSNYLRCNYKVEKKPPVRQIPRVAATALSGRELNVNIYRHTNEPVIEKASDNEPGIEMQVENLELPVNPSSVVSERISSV
The test is described as follows: 5-HT2c receptor affinity assay (displacement of 3H-labelled 5-HT, Scintillation Proximity Assay). It counts as binding. The method, then:
The 5-HT2c receptor affinity of compounds in the Examples was determined in competition experiments, where the ability of each compound in serial dilution to displace ^3H-labelledlabeled 5-HT, bound to membranes prepared from a transfected HEK293 cell line stably expressing the human 5-HT2c receptor protein, was monitored by Scintillation Proximity Assay technology. Non-specific binding was defined using 5 μM mianserin.
A general note: Displacement assays read how much labelled ligand stays bound in the presence of the test substance.

Where [1] appears, read: membranes from transfected HEK293 cells expressing human 5-HT2c receptor, 3H-5-HT radioligand, read-out: 5-HT2C receptor Affinity Ki.

As for `FC(F)(F)c1ccc(N2CCNCC2)nc1SCc1ccccc1Cl` [Example 15, 1-[6-(2-Chloro-benzylsulfanyl)-5-trifluoromethyl-pyridin-2-yl]-piperazine, acetate], affinity was put at a Ki of 1 nM.

Turning to `CCSc1nc(N2CCNCC2)ccc1C(F)(F)F` [Example 17, 1-(6-Ethylsulfanyl-5-trifluoromethyl-pyridin-2-yl)-piperazine, acetate], the affinity corresponds to a Ki of 15 nM.

With `FC(F)(F)c1ccc(N2CCNCC2)nc1OCCOc1cccc2cccnc12` [Example 21, 8-[2-(6-Piperazin-1-yl-3-trifluoromethyl-pyridin-2-yloxy)-ethoxyl-quinoline, acetate], the Ki (as a rule, the equilibrium dissociation constant of an inhibitor or competing ligand from its target) under setting [1] came to 246 nM.

`FC(F)(F)c1ccc(N2CCNCC2)nc1OCc1ccco1` [Example 25, 1-[6-(Furan-2-ylmethoxy)-5-trifluoromethyl-pyridin-2-yl]-piperazine, acetate]: the affinity, expressed as Ki, was 14 nM.

`CCSc1nc(N2CCNC[C@H]2C)ccc1C(F)(F)F` [Example 30, 1-(6-Ethylsulfanyl-5-trifluoromethyl-pyridin-2-yl)-2-(R)-methyl-piperazine, acetate]: the affinity, expressed as Ki, was 24 nM.

`COc1ccc(F)cc1COc1nc(N2CCNCC2)ccc1C(F)(F)F` [Example 36, 1-[6-(5-Fluoro-2-methoxy-benzyloxy)-5-trifluoromethyl-pyridin-2-yl]-piperazine, acetate] came in with an inhibition constant Ki of 5 nM.

Regarding `C[C@H]1CN(c2ccc(C(F)(F)F)c(SCc3ccccc3Cl)n2)CCN1` [Example 38, 1-[6-(2-Chloro-benzylsulfanyl)-5-trifluoromethyl-pyridin-2-yl]-3-(S)-methyl-piperazine, acetate], the Ki under setting [1] turned out to be 6 nM.
